Measurements taken from ChEMBL document CHEMBL1133974, “Synthesis and in vitro evaluation of a series of diketopiperazine inhibitors of plasminogen activator inhibitor-1” (Bioorg Med Chem Lett, 2001).

Each molecule was assayed against T1, Plasminogen activator inhibitor 1 (Homo sapiens, UniProt P05121) (assay: Inhibitory activity of compound against Plasminogen activator inhibitor-1).
T1 sequence (P05121 whole entry): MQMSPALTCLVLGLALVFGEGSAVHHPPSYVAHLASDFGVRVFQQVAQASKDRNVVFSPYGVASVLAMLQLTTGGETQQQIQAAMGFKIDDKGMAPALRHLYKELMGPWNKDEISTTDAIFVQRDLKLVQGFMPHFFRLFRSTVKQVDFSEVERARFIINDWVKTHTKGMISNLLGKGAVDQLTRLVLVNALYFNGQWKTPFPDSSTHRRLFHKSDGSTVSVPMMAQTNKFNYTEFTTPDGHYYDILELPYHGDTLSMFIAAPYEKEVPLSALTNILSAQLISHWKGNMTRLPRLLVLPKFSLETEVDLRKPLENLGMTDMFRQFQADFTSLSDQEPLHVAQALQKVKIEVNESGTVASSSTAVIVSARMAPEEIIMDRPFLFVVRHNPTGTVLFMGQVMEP

Row | SMILES | IC50 [µM]
1 | CN(C)CCOc1ccc(/C=c2\[nH]c(=O)/c(=C/c3ccccc3)[nH]c2=O)s1 | > 25
2 | CN(C)CCSc1ccc(/C=c2\[nH]c(=O)/c(=C/c3ccc(N(C)C)cc3)[nH]c2=O)s1 | > 25
3 | COC(=O)c1ccc(/C=c2\[nH]c(=O)/c(=C/c3ccc(SCCN(C)C)s3)[nH]c2=O)cc1 | 17.7
4 | O=C(O)CCCOc1ccc(/C=c2\[nH]c(=O)/c(=C/c3ccccc3)[nH]c2=O)cc1 | 20
5 | CN(C)CC[S+]([O-])c1ccc(/C=c2\[nH]c(=O)/c(=C/c3ccccc3)[nH]c2=O)s1 (stereo unspecified) | > 25
6 | CN(C)CCSc1ccc(/C=c2\[nH]c(=O)/c(=C/c3ccccc3Br)[nH]c2=O)s1 | > 25
7 | O=C(O)COc1ccc(/C=c2\[nH]c(=O)/c(=C/c3ccccc3)[nH]c2=O)cc1 | > 25
8 | O=C(O)c1ccc(/C=c2\[nH]c(=O)/c(=C/c3ccccc3)[nH]c2=O)cc1 | > 25
9 | CN(C)CCSc1ccc(/C=c2\[nH]c(=O)/c(=C/c3ccc(C#N)cc3)[nH]c2=O)s1 | > 25
10 | CN(C)CCSc1ccc(/C=c2\[nH]c(=O)/c(=C/c3cccc(Cl)c3)[nH]c2=O)s1 | > 25
11 | CCN(CC)CCSc1ccc(/C=c2\[nH]c(=O)/c(=C/c3ccccc3)[nH]c2=O)s1 | > 25

Stronger by IC50, values ahead:

Row | IC50 [µM] | SMILES
12 | 15 | O=C(O)CCCCOc1ccc(/C=c2\[nH]c(=O)/c(=C/c3ccccc3)[nH]c2=O)cc1
13 | 13.1 | CN(C)CCSc1ccc(/C=c2\[nH]c(=O)/c(=C/c3ccc(Br)cc3)[nH]c2=O)s1
14 | 12.4 | Cc1ccc(/C=c2\[nH]c(=O)/c(=C/c3ccc(SCCN(C)C)s3)[nH]c2=O)cc1
15 | 10.9 | COc1ccc(/C=c2\[nH]c(=O)/c(=C/c3ccc(SCCN(C)C)s3)[nH]c2=O)cc1
16 | 6.1 | CN(C)CCSc1ccc(/C=c2\[nH]c(=O)/c(=C/c3ccc(NC(=O)c4ccccc4)cc3)[nH]c2=O)s1
17 | 4.77 | COC(=O)CCCCCCC(=O)Nc1ccc(/C=c2\[nH]c(=O)/c(=C/c3ccc(NC(=O)c4cccs4)cc3)[nH]c2=O)cc1
18 | 3.5 | CN(C)CCSc1ccc(/C=c2\[nH]c(=O)/c(=C/c3ccccc3)[nH]c2=O)s1
19 | 3.1 | CN(C)CCSc1ccc(/C=c2\[nH]c(=O)/c(=C/c3ccc(NC(=O)c4cccs4)cc3)[nH]c2=O)s1
20 | 1.93 | COC(=O)CCCCCCCOc1ccc(/C=c2\[nH]c(=O)/c(=C/c3ccc(NC(=O)c4cccs4)cc3)[nH]c2=O)cc1
21 | 1.75 | O=C(O)CCCCOc1ccc(/C=c2\[nH]c(=O)/c(=C/c3ccc(NC(=O)c4cccs4)cc3)[nH]c2=O)cc1
22 | 0.52 | O=C(O)CCCCCCC(=O)Nc1ccc(/C=c2\[nH]c(=O)/c(=C/c3ccc(NC(=O)c4cccs4)cc3)[nH]c2=O)cc1
23 | 0.39 | O=C(O)CCCCCCCCC(=O)Nc1ccc(/C=c2\[nH]c(=O)/c(=C/c3ccc(NC(=O)c4cccs4)cc3)[nH]c2=O)cc1
24 | 0.2 | O=C(O)CCCCCCCOc1ccc(/C=c2\[nH]c(=O)/c(=C/c3ccc(NC(=O)c4cccs4)cc3)[nH]c2=O)cc1

The molecules below were run against T1, Plasminogen activator inhibitor 1 (assay: Tissue plasminogen activator generation in plasmin was evaluated by measuring the ability to inhibit Plasminogen activator inhibitor-1 through complex assay).

Row | IC50 [µM] | SMILES
25 | 0.51 | O=C(O)CCCCCCCOc1ccc(/C=c2\[nH]c(=O)/c(=C/c3ccc(NC(=O)c4cccs4)cc3)[nH]c2=O)cc1

What follows are molecules tested against T1, Plasminogen activator inhibitor 1 (assay: Tissue plasminogen activator generation in plasmin was evaluated by measuring the ability to inhibit Plasminogen activator inhibitor-1 through fibrin plate assay).

Row | IC50 [µM] | SMILES
26 | 0.26 | O=C(O)CCCCCCCOc1ccc(/C=c2\[nH]c(=O)/c(=C/c3ccc(NC(=O)c4cccs4)cc3)[nH]c2=O)cc1
